Legend:
[1] = system: Masugi's nephritis; assay: Effectiveness in treating Masugi's nephritis (experimental glomerulonephritis), protein in urine; type: in vivo, rat; details: 10 mg/kg, oral; mean ± standard deviation, 7 animals; control group 40.8 ± 15.1
Protocol: […] […] As the index to effectiveness, the protein concentration in urine was determined. That is, when inflammation develops in the kidney, it causes damage to renal tubules, etc., and a resultant increase in protein concentration in urine.

[2] = system: adjuvant arthritis; assay: Effectiveness in treating adjuvant arthritis (Mycobacterium butyricum); type: in vivo, rat; details: 60 mg/kg, oral, day -1 to day 13
Protocol: Adjuvant arthritis is known as a representative model of autoimmune diseases and is a effective means of testing agents to treat human rheumatoid arthritis (Encyclopedia of Immunology, edited by I. M. Roitt, Academic Press, 1992; Otterness, I. G., et al., J. of Rheumatology (1991), volume 18, pages 505-511),
The method of experiment was as follows. A 0.6% Mycobacterium butyricum liquid paraffin suspension, 0.1 ml/animal, was administered to a rat at a subcutaneous site of left hind-limb sole to induce adjuvant arthritis. The present compound was orally administered (in the form of a suspension in water) consecutively from 1 day before the induction to 13 days after the induction. The efficacy of the present compound on adjuvant arthritis was evaluated by examining the swelling accompanied by red spots and subcutaneous knots at the fore-limb, hind-limb, tail, ear and periphery of eye with the lapse of days (on the 8th, 10th, 12th, 14th, 16th and 18th days after adjuvant administration), expressing the results in terms of scores according to the method of F. D. Wood et al. (Int. Arch. Allergy (1969), volume 35, pages 456-467), and calculating the percentage inhibition relative to the control group. Thus, the higher value of percentage inhibition indicates the higher effectiveness.

[3] = biological target: T1, C1r (Homo sapiens, UniProt P00736); assay: anti-complement (anti-C1 esterase) activity, C1r hydrolysis of AAME (acetyl-arginine methyl ester); type: biochemical; details: hydrolysis of AAME; read-out: Clr: molar concentration inhibiting 50% of C1r activity (IC50)
T1 sequence (P00736 18-705): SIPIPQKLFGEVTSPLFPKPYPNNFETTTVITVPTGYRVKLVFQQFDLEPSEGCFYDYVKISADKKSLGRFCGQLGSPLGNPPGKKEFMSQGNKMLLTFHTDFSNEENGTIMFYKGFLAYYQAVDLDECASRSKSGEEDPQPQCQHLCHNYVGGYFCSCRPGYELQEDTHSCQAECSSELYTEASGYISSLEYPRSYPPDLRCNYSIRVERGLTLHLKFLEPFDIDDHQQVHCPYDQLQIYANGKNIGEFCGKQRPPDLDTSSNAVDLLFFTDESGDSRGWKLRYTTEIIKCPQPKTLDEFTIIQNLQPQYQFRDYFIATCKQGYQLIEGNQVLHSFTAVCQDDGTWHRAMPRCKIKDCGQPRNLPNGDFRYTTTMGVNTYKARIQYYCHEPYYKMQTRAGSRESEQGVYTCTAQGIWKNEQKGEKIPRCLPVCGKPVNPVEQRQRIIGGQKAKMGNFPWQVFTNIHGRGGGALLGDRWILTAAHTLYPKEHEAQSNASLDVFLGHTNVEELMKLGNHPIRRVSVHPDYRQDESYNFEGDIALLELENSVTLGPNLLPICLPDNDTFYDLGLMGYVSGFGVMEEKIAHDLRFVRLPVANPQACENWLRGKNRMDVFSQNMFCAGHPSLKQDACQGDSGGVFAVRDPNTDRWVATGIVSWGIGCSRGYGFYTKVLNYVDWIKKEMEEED

[4] = biological target: thrombin (Homo sapiens, UniProt P00734); assay: anti-thrombin activity, hydrolysis of TAME (tosylarginine methyl ester); type: biochemical; details: hydrolysis of TAME; read-out: Thr: molar concentration inhibiting 50% of enzyme activity (IC50)
Protocol: (§1) The values in Table 1 represent molar concentrations (IC50) of test compounds which inhibit 50% of the activity of each enzyme to hydrolyze TAME (tosylarginine methyl ester). The anti-trypsin, anti-plasmin, anti-kallikrein and anti-thrombin activities were determined according to the method of Muramatsu et al. (J. Biochem. (1965), volume 58, page 214).

[5] = system: kallikrein; assay: anti-kallikrein activity, hydrolysis of TAME (tosylarginine methyl ester); type: biochemical; details: hydrolysis of TAME; read-out: Kal: molar concentration inhibiting 50% of enzyme activity (IC50)
Protocol: as §1

[6] = biological target: plasmin (Homo sapiens, UniProt P00747); assay: anti-plasmin activity, hydrolysis of TAME (tosylarginine methyl ester); type: biochemical; details: hydrolysis of TAME; read-out: Pla: molar concentration inhibiting 50% of enzyme activity (IC50)
Sequence of plasmin (P00747 581-810 limits assumed, species assumed): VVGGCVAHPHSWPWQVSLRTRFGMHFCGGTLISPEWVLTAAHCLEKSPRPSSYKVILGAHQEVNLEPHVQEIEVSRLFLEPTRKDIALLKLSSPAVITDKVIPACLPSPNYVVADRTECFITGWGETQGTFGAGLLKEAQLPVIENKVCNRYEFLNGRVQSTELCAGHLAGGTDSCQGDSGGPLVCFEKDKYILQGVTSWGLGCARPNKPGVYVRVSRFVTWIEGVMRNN
Sequence of plasmin (P00747 97-580 partner limits assumed, species assumed): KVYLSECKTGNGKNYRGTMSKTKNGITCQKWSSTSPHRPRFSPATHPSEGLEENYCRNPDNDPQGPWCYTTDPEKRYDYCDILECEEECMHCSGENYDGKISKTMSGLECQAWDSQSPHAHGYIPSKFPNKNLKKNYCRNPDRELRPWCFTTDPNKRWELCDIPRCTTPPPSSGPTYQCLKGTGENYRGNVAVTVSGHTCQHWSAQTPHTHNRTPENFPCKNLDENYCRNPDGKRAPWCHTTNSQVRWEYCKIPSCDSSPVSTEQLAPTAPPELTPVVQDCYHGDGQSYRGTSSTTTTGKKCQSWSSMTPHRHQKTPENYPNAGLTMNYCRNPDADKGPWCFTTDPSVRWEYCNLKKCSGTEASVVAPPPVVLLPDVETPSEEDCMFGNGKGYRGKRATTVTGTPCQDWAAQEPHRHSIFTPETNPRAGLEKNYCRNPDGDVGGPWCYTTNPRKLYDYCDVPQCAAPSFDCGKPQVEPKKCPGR
Protocol: as §1

[7] = biological target: T2, C1s (Homo sapiens, UniProt P09871); assay: anti-complement (anti-C1 esterase) activity, C1s hydrolysis of ATEE (acetyltyrosine ethyl ester); type: biochemical; details: hydrolysis of ATEE; read-out: Cls: molar concentration inhibiting 50% of C1s activity (IC50)
T2 sequence (P09871 16-688): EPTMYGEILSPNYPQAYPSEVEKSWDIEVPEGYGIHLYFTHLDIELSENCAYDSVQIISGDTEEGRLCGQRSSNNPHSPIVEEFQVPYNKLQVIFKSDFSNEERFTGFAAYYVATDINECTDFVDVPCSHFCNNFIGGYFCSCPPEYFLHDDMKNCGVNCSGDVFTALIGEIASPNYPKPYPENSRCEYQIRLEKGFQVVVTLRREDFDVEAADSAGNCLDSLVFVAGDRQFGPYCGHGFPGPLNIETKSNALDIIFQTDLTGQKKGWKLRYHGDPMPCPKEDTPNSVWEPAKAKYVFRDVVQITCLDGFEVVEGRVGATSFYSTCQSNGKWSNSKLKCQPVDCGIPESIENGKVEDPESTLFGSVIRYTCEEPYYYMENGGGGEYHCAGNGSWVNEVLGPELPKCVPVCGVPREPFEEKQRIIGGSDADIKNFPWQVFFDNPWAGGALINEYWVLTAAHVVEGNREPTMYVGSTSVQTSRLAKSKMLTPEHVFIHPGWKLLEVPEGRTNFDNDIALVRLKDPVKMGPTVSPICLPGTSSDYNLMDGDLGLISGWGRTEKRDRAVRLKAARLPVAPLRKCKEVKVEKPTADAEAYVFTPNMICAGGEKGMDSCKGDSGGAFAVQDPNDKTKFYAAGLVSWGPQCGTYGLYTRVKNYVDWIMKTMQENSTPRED
Protocol: The anti-C1 esterase (C1r, C1s) activity was determined according to the method of Okamura et al. (Biochem. Biophys. Acta (1973), volume 295, pages 252-257). […] The values for C1s represent molar concentrations (IC50) of test compounds which inhibit 50% of the activity of C1s to hydrolyze ATEE (acetyltyrosine ethyl ester).

[8] = biological target: T3, trypsin (Bos taurus, UniProt P00760); assay: anti-trypsin activity, hydrolysis of TAME (tosylarginine methyl ester); type: biochemical; details: hydrolysis of TAME; read-out: Try: molar concentration inhibiting 50% of enzyme activity (IC50)
T3 sequence (P00760 24-246): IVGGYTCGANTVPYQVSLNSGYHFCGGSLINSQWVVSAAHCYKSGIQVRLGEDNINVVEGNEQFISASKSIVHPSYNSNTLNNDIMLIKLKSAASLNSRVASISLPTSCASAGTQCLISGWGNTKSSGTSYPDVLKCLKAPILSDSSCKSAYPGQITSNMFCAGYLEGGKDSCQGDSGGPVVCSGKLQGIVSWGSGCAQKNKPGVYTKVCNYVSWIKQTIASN

In the case of `Cl.N=C(N)c1ccc2cc(OC(=O)c3ccc(CNC(=O)CC(=O)O)o3)ccc2c1` [Example 17, 6-Amidino-2-naphthyl 5-carboxyacetylaminomethylfuran-2-carboxylate hydrochloride], the “Protein concentration in urine” value [1] is reported as 2.0 ± 2.0 mg/mL, the “Percentage inhibition (arthritis score)” value [2] is reported as 75.1% and the IC50 [3] is reported as 1700 nM. It also gave an IC50 [4] of 1900 nM, an IC50 [5] of 1100 nM and an IC50 [6] of 43 nM. It also gave an IC50 [7] of 53 nM and an IC50 [8] of 470 nM.
